From PubChem BioAssay (NCI)
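Step 1: Grow cells in 96-well plates. Step 2: Expose to compound for 48 hours at 5 concentrations. Step 3: Interpolate endpoints linearly; if unreached, use highest concentration. The concentration for 50% growth inhibition is given as GI50. TGI denotes the concentration required for complete inhibition of growth.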

Legend:
Experiment in all cases: DTP human tumour cell line panel, 48 h
SNB-78 CNS = tested on: SNB-78 CNS
HOP-18 NSCLC = tested on: HOP-18 NSCLC
DLD-1 colon = tested on: DLD-1 colon
DMS 273 small cell lung = tested on: DMS 273 small cell lung
KM20L2 colon = tested on: KM20L2 colon
M19-MEL melanoma = tested on: M19-MEL melanoma
XF 498 CNS = tested on: XF 498 CNS
RXF-631 renal = tested on: RXF-631 renal
DMS 114 small cell lung = tested on: DMS 114 small cell lung

O=C(c1ccccc1)[C@H]1Nc2cnccc2C2c3ccccc3CC21 (stereo not given in full)
TGI (SNB-78 CNS): > 79.8 µM | TGI (HOP-18 NSCLC): 45.6 µM | TGI (DLD-1 colon): > 80.7 µM | TGI (DMS 273 small cell lung): > 63.9 µM | TGI (KM20L2 colon): 57.3 µM | TGI (M19-MEL melanoma): 23.8 µM | TGI (XF 498 CNS): 64.4 µM | TGI (RXF-631 renal): > 100 µM | TGI (DMS 114 small cell lung): 30.7 µM

C=C1CC2C(=O)N(c3ccccc3)C(=O)C2CC1n1[nH]c(=O)n(Cc2ccccc2)c1=O (stereo not given)
TGI (SNB-78 CNS): > 100 µM | TGI (HOP-18 NSCLC): > 100 µM | TGI (DLD-1 colon): > 100 µM | TGI (DMS 273 small cell lung): > 100 µM | TGI (KM20L2 colon): > 100 µM | TGI (M19-MEL melanoma): > 100 µM | TGI (XF 498 CNS): > 100 µM | TGI (DMS 114 small cell lung): […]

COC(=O)C(=O)C(C(=O)C(=O)Nc1cc([N+](=O)[O-])ccc1C#N)c1nc2ccccc2[nH]c1=O (stereo not given)
TGI (HOP-18 NSCLC): > 100 µM | TGI (DLD-1 colon): > 100 µM | TGI (DMS 273 small cell lung): > 100 µM | TGI (KM20L2 colon): > 100 µM | TGI (M19-MEL melanoma): > 100 µM | TGI (XF 498 CNS): > 100 µM | TGI (RXF-631 renal): > 100 µM | TGI (DMS 114 small cell lung): > 100 µM

CC1(C)OC(=O)C=C([O-])O1.CC1(C)OC(=O)C=C([O-])O1.O=c1c(O)c(-c2ccc([O-])cc2[O-])oc2cc(O)cc(O)c12.[Ti+4]
GI50 (SNB-78 CNS): > 100 µM | TGI (SNB-78 CNS): > 100 µM | GI50 (HOP-18 NSCLC): 25 µM | TGI (HOP-18 NSCLC): > 100 µM | GI50 (DLD-1 colon): > 100 µM | TGI (DLD-1 colon): > 100 µM | GI50 (DMS 273 small cell lung): 32.2 µM | TGI (DMS 273 small cell lung): > 100 µM | GI50 (KM20L2 colon): > 100 µM | TGI (KM20L2 colon): > 100 µM | GI50 (M19-MEL melanoma): 92.1 µM | TGI (M19-MEL melanoma): > 100 µM | GI50 (DMS 114 small cell lung): 64.7 µM | TGI (DMS 114 small cell lung): > 100 µM

O=c1cc(-c2ccccc2F)[nH]c2cc3c(cc12)OCO3
TGI (SNB-78 CNS): > 100 µM | TGI (HOP-18 NSCLC): 61.1 µM | TGI (DLD-1 colon): 2.82 µM | TGI (DMS 273 small cell lung): > 100 µM | TGI (M19-MEL melanoma): > 100 µM | TGI (XF 498 CNS): 91.7 µM | TGI (DMS 114 small cell lung): 51.7 µM

N#CC(C#N)=Cc1cccc(Oc2ccccc2)c1
TGI (SNB-78 CNS): 99.9 µM | TGI (HOP-18 NSCLC): 42.4 µM | TGI (DLD-1 colon): 51.9 µM | TGI (DMS 273 small cell lung): 36.1 µM | TGI (KM20L2 colon): > 80.9 µM | TGI (M19-MEL melanoma): > 79 µM | TGI (XF 498 CNS): 46.6 µM | TGI (DMS 114 small cell lung): 73.2 µM

COc1ccc(/C=C/C(=O)c2sc(-n3nc(-c4ccccc4)cc3-c3ccccc3)nc2C)cc1OC
TGI (HOP-18 NSCLC): > 100 µM | TGI (DLD-1 colon): > 100 µM | TGI (DMS 273 small cell lung): > 100 µM | TGI (KM20L2 colon): 63.7 µM | TGI (M19-MEL melanoma): > 100 µM | TGI (XF 498 CNS): > 100 µM | TGI (RXF-631 renal): > 100 µM | TGI (DMS 114 small cell lung): > 100 µM

Cc1ccc([N+](=O)[O-])c2c(NCCCN(C)C)ccnc12
TGI (SNB-78 CNS): > 100 µM | TGI (KM20L2 colon): 75.2 µM

CCOC(=O)/C(=C/c1ccco1)P(=O)(OCC)OCC
TGI (SNB-78 CNS): > 100 µM | TGI (HOP-18 NSCLC): > 100 µM | TGI (DLD-1 colon): > 100 µM | TGI (M19-MEL melanoma): > 100 µM | TGI (XF 498 CNS): > 100 µM | TGI (DMS 114 small cell lung): > 100 µM

NC(CCSCC(F)F)C(=O)O (stereo not given)
TGI (SNB-78 CNS): > 100 µM | TGI (HOP-18 NSCLC): > 100 µM | TGI (DLD-1 colon): > 100 µM | TGI (DMS 273 small cell lung): > 100 µM | TGI (KM20L2 colon): > 100 µM | TGI (M19-MEL melanoma): > 100 µM | TGI (XF 498 CNS): > 100 µM | TGI (RXF-631 renal): > 100 µM | TGI (DMS 114 small cell lung): > 100 µM

Cc1cc(C)nc(NS(=O)(=O)c2ccc(Nc3c4ccccc4nc4c(C(=O)N5CCN(CCOS(C)(=O)=O)CC5)ccc(Cl)c34)cc2)n1
TGI (SNB-78 CNS): > 100 µM | TGI (DLD-1 colon): > 100 µM | TGI (DMS 273 small cell lung): > 100 µM | TGI (KM20L2 colon): > 100 µM | TGI (M19-MEL melanoma): > 100 µM | TGI (XF 498 CNS): > 100 µM | TGI (RXF-631 renal): > 100 µM | TGI (DMS 114 small cell lung): > 100 µM

NC(=O)NC(=NCc1ccccc1)NCc1ccccc1
TGI (SNB-78 CNS): > 100 µM | TGI (DLD-1 colon): > 100 µM | TGI (DMS 273 small cell lung): > 100 µM | TGI (KM20L2 colon): > 100 µM

COC(=O)/C(=N\NC(=S)NN)C(C(=O)C(=O)Nc1ccccc1C(N)=O)c1nc2ccccc2[nH]c1=O (stereo not given)
TGI (SNB-78 CNS): > 100 µM | TGI (HOP-18 NSCLC): > 100 µM | TGI (DMS 273 small cell lung): > 100 µM | TGI (KM20L2 colon): > 100 µM | TGI (M19-MEL melanoma): > 100 µM | TGI (XF 498 CNS): > 100 µM | TGI (RXF-631 renal): > 100 µM | TGI (DMS 114 small cell lung): > 100 µM

CCOC(=O)C(NC(=O)c1ccc(N=NN(C)C)cc1)C(C)C (stereo not given)
TGI (DLD-1 colon): > 100 µM | TGI (DMS 273 small cell lung): > 100 µM | TGI (DMS 114 small cell lung): > 100 µM

COCC(=O)OC1CCn2c1nc1c2C(=O)C(C)=C(NC(C)=O)C1=O (stereo not given)
TGI (SNB-78 CNS): 4.4 µM | TGI (HOP-18 NSCLC): 57.2 µM | TGI (DLD-1 colon): 28.8 µM | TGI (DMS 273 small cell lung): 33.6 µM | TGI (KM20L2 colon): 44.3 µM | TGI (M19-MEL melanoma): 25.4 µM | TGI (XF 498 CNS): 11.4 µM | TGI (DMS 114 small cell lung): 5.48 µM
